# Laboratory results from PubChem BioAssay (NCI).
#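 Abbreviation: GI50, concentration required for 50% inhibition of growth. Definition used: TGI = concentration required for complete inhibition of growth.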
# Columns and labels:
# Test in all cases: NCI anticancer screen, dose series, 384-well format
# HL-60(TB) leukemia = system: HL-60(TB) leukemia
# OVCAR-5 ovarian = system: OVCAR-5 ovarian
# NCI-H522 lung = system: NCI-H522 lung
# OVCAR-4 ovarian = system: OVCAR-4 ovarian
# SF-295 CNS = system: SF-295 CNS
# M14 melanoma = system: M14 melanoma
# TK-10 renal = system: TK-10 renal
# MDA-MB-231 breast = system: MDA-MB-231 breast
# EKVX NSCLC = system: EKVX NSCLC
# RXF 393 renal = system: RXF 393 renal
# OVCAR-8 ovarian = system: OVCAR-8 ovarian
# LOX IMVI melanoma = system: LOX IMVI melanoma
# U251 glioblastoma = system: U251 glioblastoma
# KM12 colon = system: KM12 colon
# HCC-2998 colon = system: HCC-2998 colon
# NCI-H226 lung = system: NCI-H226 lung
# MDA-MB-435 melanoma = system: MDA-MB-435 melanoma
# SN12C renal = system: SN12C renal
# HOP-62 NSCLC = system: HOP-62 NSCLC
# UACC-62 melanoma = system: UACC-62 melanoma
# SK-MEL-28 melanoma = system: SK-MEL-28 melanoma
# DU-145 prostate = system: DU-145 prostate
# MCF7 breast = system: MCF7 breast
# NCI-H322M lung = system: NCI-H322M lung
# OVCAR-3 ovarian = system: OVCAR-3 ovarian
# HCT-116 colon = system: HCT-116 colon
# RPMI-8226 leukemia = system: RPMI-8226 leukemia
# PC-3 prostate = system: PC-3 prostate
# SR leukemia = system: SR leukemia
# A549 NSCLC = system: A549 NSCLC
# T-47D breast = system: T-47D breast
# ACHN renal = system: ACHN renal
# IGROV1 ovarian = system: IGROV1 ovarian
# SNB-75 CNS = system: SNB-75 CNS
# NCI/ADR-RES ovarian = system: NCI/ADR-RES ovarian
# NCI-H460 NSCLC = system: NCI-H460 NSCLC
# CAKI-1 renal = system: CAKI-1 renal
# SNB-19 CNS = system: SNB-19 CNS
# COLO 205 colon = system: COLO 205 colon
# SF-268 CNS = system: SF-268 CNS
# SF-539 CNS = system: SF-539 CNS
# NCI-H23 lung = system: NCI-H23 lung
# SK-MEL-5 melanoma = system: SK-MEL-5 melanoma
# MDA-MB-468 breast = system: MDA-MB-468 breast
# BT-549 breast = system: BT-549 breast
# UACC-257 melanoma = system: UACC-257 melanoma
# MALME-3M melanoma = system: MALME-3M melanoma
# HCT-15 colon = system: HCT-15 colon
# HT29 colon = system: HT29 colon
# MOLT-4 leukemia = system: MOLT-4 leukemia
# HS 578T breast = system: HS 578T breast
# SK-OV-3 ovarian = system: SK-OV-3 ovarian
# A498 renal = system: A498 renal
# HOP-92 NSCLC = system: HOP-92 NSCLC
structure (smiles),measurement,setting,value
COc1cc2c(cc1-c1c(C)noc1C)ncc1[nH]c(=O)n([C@H](C)c3ccccn3)c12,GI50,HL-60(TB) leukemia,0.144 µM
same,TGI,HL-60(TB) leukemia,0.277 µM
same,GI50,OVCAR-5 ovarian,0.392 µM
same,TGI,OVCAR-5 ovarian,10.9 µM
same,GI50,NCI-H522 lung,0.321 µM
same,TGI,NCI-H522 lung,2.41 µM
same,GI50,OVCAR-4 ovarian,0.199 µM
same,TGI,OVCAR-4 ovarian,0.615 µM
same,GI50,SF-295 CNS,5.3 µM
same,TGI,SF-295 CNS,> 100 µM
same,GI50,M14 melanoma,1.03 µM
same,TGI,M14 melanoma,33.2 µM
same,GI50,TK-10 renal,0.575 µM
same,TGI,TK-10 renal,12.4 µM
same,GI50,MDA-MB-231 breast,0.91 µM
same,TGI,MDA-MB-231 breast,> 100 µM
same,GI50,EKVX NSCLC,27.7 µM
same,TGI,EKVX NSCLC,> 100 µM
same,GI50,RXF 393 renal,8.71 µM
same,TGI,RXF 393 renal,> 100 µM
same,GI50,OVCAR-8 ovarian,0.521 µM
same,TGI,OVCAR-8 ovarian,9.6 µM
same,GI50,LOX IMVI melanoma,0.245 µM
same,TGI,LOX IMVI melanoma,0.574 µM
same,GI50,U251 glioblastoma,3.17 µM
same,TGI,U251 glioblastoma,> 100 µM
same,GI50,KM12 colon,1.71 µM
same,TGI,KM12 colon,> 100 µM
same,GI50,HCC-2998 colon,0.303 µM
same,TGI,HCC-2998 colon,2 µM
same,GI50,NCI-H226 lung,1.31 µM
same,TGI,NCI-H226 lung,24.7 µM
same,GI50,MDA-MB-435 melanoma,2.45 µM
same,TGI,MDA-MB-435 melanoma,51.2 µM
same,GI50,SN12C renal,0.364 µM
same,TGI,SN12C renal,> 100 µM
same,GI50,HOP-62 NSCLC,0.335 µM
same,TGI,HOP-62 NSCLC,2.54 µM
same,GI50,UACC-62 melanoma,0.308 µM
same,TGI,UACC-62 melanoma,> 100 µM
same,GI50,SK-MEL-28 melanoma,2.64 µM
same,TGI,SK-MEL-28 melanoma,> 100 µM
same,GI50,DU-145 prostate,8.96 µM
same,TGI,DU-145 prostate,> 100 µM
same,GI50,MCF7 breast,0.269 µM
same,TGI,MCF7 breast,> 100 µM
same,GI50,NCI-H322M lung,0.509 µM
same,TGI,NCI-H322M lung,9.51 µM
same,GI50,OVCAR-3 ovarian,0.421 µM
same,TGI,OVCAR-3 ovarian,7.13 µM
same,GI50,HCT-116 colon,1.9 µM
same,TGI,HCT-116 colon,> 100 µM
same,GI50,RPMI-8226 leukemia,0.212 µM
same,TGI,RPMI-8226 leukemia,0.819 µM
same,GI50,PC-3 prostate,0.743 µM
same,TGI,PC-3 prostate,> 100 µM
same,GI50,SR leukemia,0.297 µM
same,TGI,SR leukemia,14.3 µM
same,GI50,A549 NSCLC,2.39 µM
same,TGI,A549 NSCLC,> 100 µM
same,GI50,T-47D breast,3.1 µM
same,TGI,T-47D breast,> 100 µM
same,GI50,ACHN renal,1.61 µM
same,TGI,ACHN renal,> 100 µM
same,GI50,IGROV1 ovarian,0.584 µM
same,TGI,IGROV1 ovarian,9.78 µM
same,GI50,SNB-75 CNS,18.8 µM
same,TGI,SNB-75 CNS,> 100 µM
same,GI50,NCI/ADR-RES ovarian,3.05 µM
same,TGI,NCI/ADR-RES ovarian,16.8 µM
same,GI50,NCI-H460 NSCLC,2.92 µM
same,TGI,NCI-H460 NSCLC,> 100 µM
same,GI50,CAKI-1 renal,0.479 µM
same,TGI,CAKI-1 renal,> 100 µM
same,GI50,SNB-19 CNS,0.922 µM
same,TGI,SNB-19 CNS,63.5 µM
same,GI50,COLO 205 colon,0.498 µM
same,TGI,COLO 205 colon,6.27 µM
same,GI50,SF-268 CNS,8.13 µM
same,TGI,SF-268 CNS,> 100 µM
same,GI50,SF-539 CNS,0.829 µM
same,TGI,SF-539 CNS,> 100 µM
same,GI50,NCI-H23 lung,1.25 µM
same,TGI,NCI-H23 lung,> 100 µM
same,GI50,SK-MEL-5 melanoma,0.438 µM
same,TGI,SK-MEL-5 melanoma,8.69 µM
same,GI50,MDA-MB-468 breast,0.872 µM
same,TGI,MDA-MB-468 breast,> 100 µM
same,GI50,BT-549 breast,0.504 µM
same,TGI,BT-549 breast,11.4 µM
same,GI50,UACC-257 melanoma,0.503 µM
same,TGI,UACC-257 melanoma,11.6 µM
same,GI50,MALME-3M melanoma,1.91 µM
same,TGI,MALME-3M melanoma,32.5 µM
same,GI50,HCT-15 colon,0.488 µM
same,TGI,HCT-15 colon,2.8 µM
same,GI50,HT29 colon,0.412 µM
same,TGI,HT29 colon,> 100 µM
same,GI50,MOLT-4 leukemia,0.915 µM
same,TGI,MOLT-4 leukemia,7.74 µM
same,GI50,HS 578T breast,0.342 µM
same,TGI,HS 578T breast,21.5 µM
same,GI50,SK-OV-3 ovarian,0.577 µM
same,TGI,SK-OV-3 ovarian,45.5 µM
same,GI50,A498 renal,0.693 µM
same,TGI,A498 renal,> 100 µM
same,GI50,HOP-92 NSCLC,11.4 µM
same,TGI,HOP-92 NSCLC,> 100 µM
COc1ccc(-c2cc3nccn3c(Nc3ncccc3C(N)=O)n2)cc1OC,GI50,HL-60(TB) leukemia,1.15 µM
same,TGI,HL-60(TB) leukemia,3.05 µM
same,GI50,OVCAR-5 ovarian,4.46 µM
same,TGI,OVCAR-5 ovarian,> 100 µM
same,GI50,NCI-H522 lung,0.587 µM
same,TGI,NCI-H522 lung,> 100 µM
same,GI50,OVCAR-4 ovarian,> 100 µM
same,TGI,OVCAR-4 ovarian,> 100 µM
same,GI50,SF-295 CNS,> 100 µM
same,TGI,SF-295 CNS,> 100 µM
same,GI50,M14 melanoma,> 100 µM
same,TGI,M14 melanoma,> 100 µM
same,GI50,TK-10 renal,0.692 µM
same,TGI,TK-10 renal,> 100 µM
same,GI50,MDA-MB-231 breast,> 100 µM
same,TGI,MDA-MB-231 breast,> 100 µM
same,GI50,EKVX NSCLC,17.9 µM
same,TGI,EKVX NSCLC,> 100 µM
same,GI50,RXF 393 renal,2.36 µM
same,TGI,RXF 393 renal,91 µM
same,GI50,OVCAR-8 ovarian,2.14 µM
same,TGI,OVCAR-8 ovarian,> 100 µM
same,GI50,LOX IMVI melanoma,0.461 µM
same,TGI,LOX IMVI melanoma,4.31 µM
same,GI50,U251 glioblastoma,7.43 µM
same,TGI,U251 glioblastoma,> 100 µM
same,GI50,KM12 colon,1.73 µM
same,TGI,KM12 colon,> 100 µM
same,GI50,HCC-2998 colon,46.6 µM
same,TGI,HCC-2998 colon,> 100 µM
same,GI50,NCI-H226 lung,6.52 µM
same,TGI,NCI-H226 lung,> 100 µM
same,GI50,MDA-MB-435 melanoma,> 100 µM
same,TGI,MDA-MB-435 melanoma,> 100 µM
same,GI50,SN12C renal,0.819 µM
same,TGI,SN12C renal,> 100 µM
same,GI50,HOP-62 NSCLC,0.784 µM
same,TGI,HOP-62 NSCLC,71.4 µM
same,GI50,UACC-62 melanoma,0.675 µM
same,TGI,UACC-62 melanoma,> 100 µM
same,GI50,SK-MEL-28 melanoma,> 100 µM
same,TGI,SK-MEL-28 melanoma,> 100 µM
same,GI50,DU-145 prostate,0.914 µM
same,TGI,DU-145 prostate,12.3 µM
same,GI50,MCF7 breast,1.11 µM
same,TGI,MCF7 breast,> 100 µM
same,GI50,NCI-H322M lung,2.06 µM
same,TGI,NCI-H322M lung,> 100 µM
same,GI50,OVCAR-3 ovarian,2.36 µM
same,TGI,OVCAR-3 ovarian,> 100 µM
same,GI50,HCT-116 colon,0.454 µM
same,TGI,HCT-116 colon,10.9 µM
same,GI50,RPMI-8226 leukemia,1.62 µM
same,TGI,RPMI-8226 leukemia,> 100 µM
same,GI50,PC-3 prostate,2.17 µM
same,TGI,PC-3 prostate,> 100 µM
same,GI50,SR leukemia,0.129 µM
same,TGI,SR leukemia,0.301 µM
same,GI50,A549 NSCLC,17.9 µM
same,TGI,A549 NSCLC,> 100 µM
same,GI50,T-47D breast,> 100 µM
same,TGI,T-47D breast,> 100 µM
same,GI50,ACHN renal,0.45 µM
same,TGI,ACHN renal,3.75 µM
same,GI50,IGROV1 ovarian,0.666 µM
same,TGI,IGROV1 ovarian,> 100 µM
same,GI50,SNB-75 CNS,> 100 µM
same,TGI,SNB-75 CNS,> 100 µM
same,GI50,NCI/ADR-RES ovarian,1.87 µM
same,TGI,NCI/ADR-RES ovarian,> 100 µM
same,GI50,NCI-H460 NSCLC,0.555 µM
same,TGI,NCI-H460 NSCLC,12.4 µM
same,GI50,CAKI-1 renal,0.392 µM
same,TGI,CAKI-1 renal,> 100 µM
same,GI50,SNB-19 CNS,51.6 µM
same,TGI,SNB-19 CNS,> 100 µM
same,GI50,COLO 205 colon,0.522 µM
same,TGI,COLO 205 colon,> 100 µM
same,GI50,SF-268 CNS,2.02 µM
same,TGI,SF-268 CNS,> 100 µM
same,GI50,SF-539 CNS,4.82 µM
same,TGI,SF-539 CNS,> 100 µM
same,GI50,NCI-H23 lung,0.858 µM
same,TGI,NCI-H23 lung,> 100 µM
same,GI50,SK-MEL-5 melanoma,0.567 µM
same,TGI,SK-MEL-5 melanoma,> 100 µM
same,GI50,BT-549 breast,2.26 µM
same,TGI,BT-549 breast,> 100 µM
same,GI50,UACC-257 melanoma,91.7 µM
same,TGI,UACC-257 melanoma,> 100 µM
same,GI50,MALME-3M melanoma,> 100 µM
same,TGI,MALME-3M melanoma,> 100 µM
same,GI50,HCT-15 colon,0.677 µM
same,TGI,HCT-15 colon,> 100 µM
same,GI50,HT29 colon,6.96 µM
same,TGI,HT29 colon,> 100 µM
same,GI50,MOLT-4 leukemia,1.48 µM
same,TGI,MOLT-4 leukemia,5.77 µM
same,GI50,HS 578T breast,1.31 µM
same,TGI,HS 578T breast,> 100 µM
same,GI50,SK-OV-3 ovarian,0.571 µM
same,TGI,SK-OV-3 ovarian,> 100 µM
same,GI50,A498 renal,0.518 µM
same,TGI,A498 renal,> 100 µM
same,GI50,HOP-92 NSCLC,> 100 µM
same,TGI,HOP-92 NSCLC,> 100 µM
